# Source: patent US20020194634A1, “Insect control system” (priority 1999, published 2002)
# Experiments:
# [1] = tested on: tobacco budworm Heliothis virescens; settings: cited from earlier work
# [2] = tested on: adult boll weevil Anthonomus granids Boheman; settings: cited from earlier work
# [3] = tested on: acetylcholinesterase (AchE); settings: cited from earlier work
# [4] = tested on: nicotinergic acetylcholine receptor (nAcR); settings: methyl group at the 3 position of the imidazole ring; cited from earlier work
# housefly = settings: cited from earlier work
# [5] = tested on: transgenic Medfly (C. capitata) carrying the cytosine deaminase transgene; experiment: 5-FC susceptibility of transgenic Medfly expressing cytosine deaminase; assay type: in vivo, Ceratitis capitata
# Procedure: Using standard methods, a genetic construct is prepared bearing the C. capitata VG1 promoter operably linked to a cDNA encoding E. coli cytosine deaminase. The cytosine deaminase gene, when introduced into insect cells, confers sensitivity to the pro-drug 5-FC.
# The construct is inserted into the Minos transposon using conventional techniques and, in addition, those described in U.S. Pat. No. 5,840,865. The modified transposon is then used to transform Medfly according to standard transgenesis procedures.
# Transgenic flies carrying the modified transposon are bred to create transgenic strains that express the cytosine deaminase enzyme. […] Moreover, cytosine deaminase expression is correlated with susceptibility to the pro-drug 5-FC administered in food to the flies.
# A highly susceptible strain is bred and male flies isolated. Introduction of male flies into a population of non-transgenic flies results in rapid transfer of the transgene. Female flies which are born inheriting the transgene are susceptible to 5-FC, whilst male files remain resistant.
# CD transformed flies = experiment: 5-FC feeding of CD transformed flies; assay type: in vivo, Drosophila melanogaster; settings: female CD flies compared with male CD flies, 5-FC in food
# Procedure: The effect of the pro-drug 5-FC on CD transformed flies was determined by raising the flies on food containing various concentrations of 5-FC.
# [6] = tested on: human colorectal carcinoma cells transfected with a construct expressing bacterial CD; settings: CD-transfected vs untransfected colorectal carcinoma cells; cited from earlier work
# [7] = tested on: non-transformed adult flies; experiment: 5-FC feeding of non-transformed adult flies; assay type: in vivo, Drosophila melanogaster; settings: 5-FC in food
# Procedure: (§1) To evaluate the effects of 5-FU on a D. melanogaster yw strain, flies were raised first on medium containing 5-FU. Groups of 25 flies were cultured on food containing various concentrations of the drug. Four vials of each concentration of the drug were used for each experiment and three experiments were performed. The surviving flies per vial were counted over a period of time. […] No eggs were laid on food containing more than 20 mM of 5-FU.
# The effects of the pro-drug 5-FC on non-transformed adult flies were determined in a similar way.
# [8] = tested on: D. melanogaster (strain yw); experiment: 5-FU feeding toxicity in D. melanogaster yw strain; assay type: in vivo, Drosophila melanogaster; settings: 5-FU in food
# Procedure: FIG. 5. Sensitivity of D. melanogaster (strain yw) to 5-FU. The yw strain is used routinely as recipient for generation of transgenic lines. Flies were reared in stadard Drosophila food supplemented with 5-FU at the indicated concentrations of 0 mM, 5 mM, 10 mM, 20 mM, 30 mM, 50 mM 5-FU. The x-axis represents time in days and the y-axis represents the number of flies. The data points represent the number of surviving flies.
# FIG. 6. Dose-dependent lethality of D. melanogaster to 5-FU. The x-axis represents 5-FU concentration in mM and the y-axis represents the number of flies. Strain yw flies that were used in the above described transformation experiment were reared in standard Drosophila food supplemented with 5-FU at the indicated concentrations and viable flies were determined after 9 days. Each data point represents the mean±standard deviation of three separate experiments, each with 100 flies.
# as §1
# [9] = budworm larvae, within 2 hours of a topical acephate application; cited from earlier work
structure (smiles),measurement,setting,value
"COP(N)(=O)SC (stereo not drawn) [methamidophos, O, S-dimethyl phosphoramidothicate]",activity of acephate versus methamidophos,[1],comparable activity
same,fold more toxic than acephate,[2],75 fold
same,AchE inhibition (in words),[3],potent
CN1CCN(Cc2ccc(Cl)nc2)C1=N[N+](=O)[O-] [N-Me-imidacloprid],decrease in binding affinity to nAcR relative to imidacloprid,[4],100 fold
same,potency relative to imidacloprid,housefly,as potent as imidacloprid
"Nc1nc(=O)[nH]cc1F [5-FC, 5-fluorocytosine]",susceptibility to 5-FC,[5]; female Medflies inheriting the transgene,susceptible
same,susceptibility to 5-FC,[5]; male Medflies carrying the transgene,resistant
same,viability with increasing 5-FC,CD transformed flies,substantial reduction in viability
same,fold more sensitive to 5-FC than untransfected cells,[6],about 600 fold
same,reduction in fly viability,[7],substantially no reduction
"O=c1[nH]cc(F)c(=O)[nH]1 [5-FU, 5-fluorouracil]",concentration in food above which no eggs were laid,[8],more than 20 mM
same,concentration range causing efficient killing of flies,[8]; within 9 days,30 to 50 mM
"COP(=O)(NC(C)=O)SC (stereo not drawn) [Acephate, O, S-dimethyl acetylphosphoramidothicate]",activity of acephate versus methamidophos,[1],comparable activity
same,AchE inhibition (in words),[3],not an AchE inhibitor
same,methamidophos formed from acephate,[9],small amount
